This is an account of results in patent publication US9938257B2 (Sunshine Lake Pharma Co., Ltd., priority 2015, dated 2018).

pIC50: −log10 of the molar value.

The target in one series is Aurora-A (h) (Homo sapiens (Human), UniProt O14965). The series is described as follows: Aurora-A (h) kinase activity assay. It counts as biochemical. In a few lines:
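Human Aurora-A in 8 mM MOPS pH 7.0, 0.2 mM EDTA, 10 mM Mg acetate, 200 μM Kemptide and [γ-33P]ATP, started with MgATP, 40 min at room temperature. Stopped with phosphoric acid; filter-bound 33P counted. IC50 from 10-point half-log dilution series.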

Another series addresses JAK1 (h) (Homo sapiens (Human), UniProt P23458). The series is described as follows: JAK1 (h) kinase activity assay. It counts as biochemical.
The target of a further series is JAK2 (h) (Homo sapiens (Human), UniProt O60674). The series is described as follows: JAK2 (h) kinase activity assay. It counts as biochemical. The method, then:
(§1) The above assay procedure can be used to determine the IC50 for inhibition and/or the inhibition constant, Ki. The IC50 is defined as the concentration of compound required to reduce the enzyme activity by 50% under the condition of the assay. The IC50 value is estimated by preparing a 10 point curve using a ½ log dilution series (for example, a typical curve may be prepared using the following compound concentrations: 3 μM, 1 μM, 0.3 μM, 0.1 μM, 0.03 μM, 0.01 μM, 0.003 μM, 0.001 μM, 0.0003 μM and 0 μM).
JAK2 (h) is incubated with 8 mM MOPS pH 7.0, 0.2 mM EDTA, 100 μM […], 10 mM MgAcetate and [γ-^33P-ATP] (specific activity approx. 500 cpm/pmol, concentration as required). The reaction is initiated by the addition of the MgATP mix. After incubation for 40 minutes at room temperature, the reaction is stopped by the addition of 3% phosphoric acid solution. 10 μL of the reaction is then spotted onto a P30 filtermat and washed three times for 5 minutes in 75 mM phosphoric acid and once in methanol prior to drying and scintillation counting.
(§2) The kinase assays described herein were performed at Millipore UK Ltd, Dundee Technology Park, Dundee DD2 1SW, UK.

The target in the next series is Aurora-B (h) (Homo sapiens (Human), UniProt Q96GD4). The series is described as follows: Aurora-B (h) kinase activity assay. It counts as biochemical. The method, then: as §1
Aurora-B (h) is incubated with 8 mM MOPS pH 7.0, 0.2 mM EDTA, 30 μM AKRRRLSSLRA, 10 mM MgAcetate and [γ-^33PATP] (specific activity approx. 500 cpm/pmol, concentration as required). The reaction is initiated by the addition of the MgATP mix. After incubation for 40 minutes at room temperature, the reaction is stopped by the addition of a 3% phosphoric acid solution. 10 μL of the reaction is then spotted onto a P30 filtermat and washed three times for 5 minutes in 75 mM phosphoric acid and once in methanol prior to drying and scintillation counting.
as §2

For another series, the target named is FLT3 (h) (Homo sapiens (Human), UniProt P36888). The series is described as follows: FLT3 (h) kinase activity assay. The format is biochemical. The method, then:
as §1
FLT3 (h) is incubated with 8 mM MOPS pH 7.0, 0.2 mM EDTA, […] EAIYAAPFAKKK, 10 mM MgAcetate and [γ-^33P-ATP] (specific activity approx. 500 cpm/pmol, concentration as required). The reaction is initiated by the addition of the MgATP mix. After incubation for 40 minutes at room temperature, the reaction is stopped by the addition of 3% phosphoric acid solution. 10 μL of the reaction is then spotted onto a P30 filtermat and washed three times for 5 minutes in 75 mM phosphoric acid and once in methanol prior to drying and scintillation counting.
as §2

The nature of series [1]: Pharmacokinetics after intravenous and oral administration in rats. The format is in vivo. In a few lines: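 IV doses generally 0.5, 1 or 2 mg/kg; oral doses in rats generally 0.5, 1, 5 or 10 mg/kg, given as solution, suspension or capsule in various vehicles. Blood sampled over 0.083 or 0.25 h to 24 h; plasma analysed by LC/MS/MS.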
The nature of series [2]: Compound stability in rat liver microsomes. The conditions noted are these: pH 7.4; for half-life at 5 μM: rat liver microsomes 0.5 mg protein/mL, compound 5 μM, NADPH 1.0 mM, 37° C., read-out: Rat T1/2; for CLint scaled at 5 μM: rat liver microsomes, in vivo CLint extrapolated. The format is in vitro ADME. The method in brief:
(§3)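 Parent compound depletion (5 μM) was tracked by LC/MS/MS over 60 min at 37° C using NADPH-fortified microsomes at 0.5 mg protein/mL. Dextromethorphan served as positive control and denatured microsomes as negative control.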

Series [3] is described as follows: Compound stability in human liver microsomes. The format is in vitro ADME. The conditions noted are these: pH 7.4; for half-life at 5 μM: human liver microsomes 0.5 mg protein/mL, compound 5 μM, NADPH 1.0 mM, 37° C., read-out: Human T1/2; for CLint scaled at 5 μM: human liver microsomes, in vivo CLint extrapolated. In a few lines: as §3
Where [4] appears, read: rat, plasma, iv dosing, dose 1 mg/kg.

Sequence of JAK1 (h) (P23458 whole entry): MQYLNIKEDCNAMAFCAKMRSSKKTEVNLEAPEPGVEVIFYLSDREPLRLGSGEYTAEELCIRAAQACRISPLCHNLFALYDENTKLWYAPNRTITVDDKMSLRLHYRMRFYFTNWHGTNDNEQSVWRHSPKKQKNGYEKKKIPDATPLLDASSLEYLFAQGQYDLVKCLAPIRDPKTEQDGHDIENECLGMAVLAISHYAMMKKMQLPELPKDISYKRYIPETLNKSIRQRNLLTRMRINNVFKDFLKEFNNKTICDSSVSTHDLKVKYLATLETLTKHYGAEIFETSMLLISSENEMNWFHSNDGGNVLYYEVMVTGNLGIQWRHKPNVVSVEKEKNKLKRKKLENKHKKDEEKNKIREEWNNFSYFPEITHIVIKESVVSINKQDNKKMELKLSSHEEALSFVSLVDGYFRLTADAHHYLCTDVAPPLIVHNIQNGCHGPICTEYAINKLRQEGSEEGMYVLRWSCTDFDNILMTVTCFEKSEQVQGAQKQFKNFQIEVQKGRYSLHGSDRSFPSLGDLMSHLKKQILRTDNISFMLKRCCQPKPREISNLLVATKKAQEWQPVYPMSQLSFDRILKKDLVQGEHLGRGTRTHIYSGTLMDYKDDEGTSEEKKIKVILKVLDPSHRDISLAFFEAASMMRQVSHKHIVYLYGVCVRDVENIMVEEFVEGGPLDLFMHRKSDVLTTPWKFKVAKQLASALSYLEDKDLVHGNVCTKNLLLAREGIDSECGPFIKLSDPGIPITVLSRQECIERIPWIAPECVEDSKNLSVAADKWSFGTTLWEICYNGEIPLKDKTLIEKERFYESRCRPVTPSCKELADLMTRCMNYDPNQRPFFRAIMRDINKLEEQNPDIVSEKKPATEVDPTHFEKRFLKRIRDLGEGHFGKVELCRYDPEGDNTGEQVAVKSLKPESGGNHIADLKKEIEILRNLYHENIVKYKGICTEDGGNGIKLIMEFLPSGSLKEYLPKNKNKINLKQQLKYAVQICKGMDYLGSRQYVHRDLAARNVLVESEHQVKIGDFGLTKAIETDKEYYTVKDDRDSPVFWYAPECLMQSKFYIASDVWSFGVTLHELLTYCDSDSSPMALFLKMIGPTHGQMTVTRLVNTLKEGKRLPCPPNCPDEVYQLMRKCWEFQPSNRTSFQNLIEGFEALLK
Sequence of JAK2 (h) (O60674 whole entry): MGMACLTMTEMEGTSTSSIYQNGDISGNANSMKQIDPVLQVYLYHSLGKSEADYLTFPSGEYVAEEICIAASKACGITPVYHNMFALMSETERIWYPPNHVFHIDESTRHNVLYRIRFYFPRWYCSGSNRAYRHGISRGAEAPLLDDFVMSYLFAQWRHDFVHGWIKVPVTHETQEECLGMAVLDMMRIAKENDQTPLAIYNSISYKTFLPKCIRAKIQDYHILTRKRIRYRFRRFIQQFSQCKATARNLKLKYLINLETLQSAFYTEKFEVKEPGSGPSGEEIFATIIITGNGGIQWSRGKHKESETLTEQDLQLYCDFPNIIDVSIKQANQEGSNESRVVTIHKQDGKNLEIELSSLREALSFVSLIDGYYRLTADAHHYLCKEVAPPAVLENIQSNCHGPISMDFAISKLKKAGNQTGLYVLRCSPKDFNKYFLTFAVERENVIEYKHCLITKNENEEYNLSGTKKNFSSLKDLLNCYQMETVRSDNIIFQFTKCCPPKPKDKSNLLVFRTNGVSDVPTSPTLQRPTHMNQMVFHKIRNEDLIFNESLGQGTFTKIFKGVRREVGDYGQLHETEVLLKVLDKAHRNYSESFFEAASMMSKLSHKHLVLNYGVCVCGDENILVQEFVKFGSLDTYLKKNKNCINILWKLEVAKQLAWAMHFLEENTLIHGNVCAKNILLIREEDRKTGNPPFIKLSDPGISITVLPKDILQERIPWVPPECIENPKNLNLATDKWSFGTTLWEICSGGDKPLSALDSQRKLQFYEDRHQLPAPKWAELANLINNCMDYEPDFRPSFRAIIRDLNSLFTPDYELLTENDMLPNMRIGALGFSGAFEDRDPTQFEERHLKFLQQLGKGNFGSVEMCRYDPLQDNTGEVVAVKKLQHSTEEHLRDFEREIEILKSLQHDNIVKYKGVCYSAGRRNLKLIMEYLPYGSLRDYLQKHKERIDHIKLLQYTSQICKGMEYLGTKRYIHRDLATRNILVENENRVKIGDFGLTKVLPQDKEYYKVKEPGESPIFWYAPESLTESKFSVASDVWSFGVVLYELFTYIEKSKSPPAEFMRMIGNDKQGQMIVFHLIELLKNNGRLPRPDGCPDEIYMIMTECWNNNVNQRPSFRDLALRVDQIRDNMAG
Sequence of Aurora-A (h) (O14965 whole entry): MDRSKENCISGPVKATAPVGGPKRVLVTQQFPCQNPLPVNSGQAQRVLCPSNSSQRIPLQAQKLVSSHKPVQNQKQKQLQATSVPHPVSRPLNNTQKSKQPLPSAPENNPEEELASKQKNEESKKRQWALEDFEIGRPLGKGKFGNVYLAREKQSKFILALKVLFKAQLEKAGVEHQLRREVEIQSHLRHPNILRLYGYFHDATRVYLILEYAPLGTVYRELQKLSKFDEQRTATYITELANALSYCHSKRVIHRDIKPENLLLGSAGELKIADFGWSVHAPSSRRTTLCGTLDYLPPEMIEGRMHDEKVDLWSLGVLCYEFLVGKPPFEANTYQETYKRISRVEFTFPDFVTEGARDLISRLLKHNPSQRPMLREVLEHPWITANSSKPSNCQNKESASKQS
Sequence of FLT3 (h) (P36888 27-993): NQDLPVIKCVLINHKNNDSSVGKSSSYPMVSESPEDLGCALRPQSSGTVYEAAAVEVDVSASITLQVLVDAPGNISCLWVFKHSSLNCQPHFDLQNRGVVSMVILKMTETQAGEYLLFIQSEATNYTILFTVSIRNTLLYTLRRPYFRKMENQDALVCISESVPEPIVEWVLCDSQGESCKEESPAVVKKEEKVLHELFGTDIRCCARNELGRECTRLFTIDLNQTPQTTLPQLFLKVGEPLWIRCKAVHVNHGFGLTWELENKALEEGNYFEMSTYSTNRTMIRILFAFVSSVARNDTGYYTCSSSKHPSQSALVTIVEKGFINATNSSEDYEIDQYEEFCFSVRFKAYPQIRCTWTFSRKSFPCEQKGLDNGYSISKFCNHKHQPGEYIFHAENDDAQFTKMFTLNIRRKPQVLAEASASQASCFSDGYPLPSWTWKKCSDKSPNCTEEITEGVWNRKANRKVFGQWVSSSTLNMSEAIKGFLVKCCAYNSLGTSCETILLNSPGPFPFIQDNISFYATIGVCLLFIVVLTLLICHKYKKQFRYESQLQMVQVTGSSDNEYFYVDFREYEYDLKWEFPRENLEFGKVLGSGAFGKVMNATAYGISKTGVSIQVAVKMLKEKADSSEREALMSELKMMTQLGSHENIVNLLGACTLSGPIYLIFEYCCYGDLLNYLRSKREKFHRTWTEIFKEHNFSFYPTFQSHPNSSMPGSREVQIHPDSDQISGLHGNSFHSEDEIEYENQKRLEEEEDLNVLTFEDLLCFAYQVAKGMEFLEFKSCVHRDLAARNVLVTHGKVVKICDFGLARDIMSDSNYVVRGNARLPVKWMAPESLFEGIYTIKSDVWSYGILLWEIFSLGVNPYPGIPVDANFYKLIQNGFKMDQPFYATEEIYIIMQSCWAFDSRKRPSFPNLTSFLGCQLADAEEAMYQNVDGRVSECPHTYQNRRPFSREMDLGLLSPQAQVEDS
Sequence of Aurora-B (h) (Q96GD4 whole entry): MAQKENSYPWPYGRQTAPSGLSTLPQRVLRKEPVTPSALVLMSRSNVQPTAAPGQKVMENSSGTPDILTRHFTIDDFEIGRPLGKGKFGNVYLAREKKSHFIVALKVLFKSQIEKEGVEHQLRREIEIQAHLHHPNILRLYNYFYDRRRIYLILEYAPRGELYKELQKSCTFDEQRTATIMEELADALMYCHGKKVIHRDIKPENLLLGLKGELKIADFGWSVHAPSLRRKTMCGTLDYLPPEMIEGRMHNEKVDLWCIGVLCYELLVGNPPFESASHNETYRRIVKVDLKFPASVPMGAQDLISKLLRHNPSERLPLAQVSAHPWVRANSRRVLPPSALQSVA

As for `COc1ccc(-n2cc(Nc3ncc(Cl)c(NC4CC5CN(C(=O)CC#N)CC5C4)n3)cn2)cn1` (centres unmarked) [Ex. 10, 3-(5-((5-chloro-2-((1-(6-methoxypyridin-3-yl)-1H-pyrazol-4-yl)amino)pyrimidin-4-yl)amino)hexahydrocyclopenta[c]pyrrol-2(1H)-yl)-3-oxopropanenitrile], the pIC50 against Aurora-A (h) was 8.40; against JAK1 (h), more than 9.52; at JAK2 (h), 7.80.

Turning to `N#CCC(=O)N1CC2CC(Nc3nc(Nc4cnn(-c5ccccn5)c4)ncc3Cl)CC2C1` (centres unmarked) [Ex. 7, 3-(5-((5-chloro-2-((1-(pyridin-2-yl)-1H-pyrazol-4-yl)amino)pyrimidin-4-yl)amino)hexahydrocyclopenta[c]pyrrol-2(1H)-yl)-3-oxopropanenitrile], the results for the pIC50 on Aurora-A (h), against JAK1 (h) and at JAK2 (h) were 8.10, 9.22 and 7.70, respectively.

With `CCOC(=O)N1CC2CC(Nc3nc(Nc4cnn(C)c4)ncc3Cl)CC2C1` (centres unmarked) [Ex. 15, ethyl 5-((5-chloro-2-((1-methyl-1H-pyrazol-4-yl)amino)pyrimidin-4-yl)amino)hexahydrocyclopenta[c]pyrrole-2(1H)-carboxylate], the pIC50 was 8.70 against Aurora-B (h); 6.30 at FLT3 (h); 8.00 against Aurora-A (h); 8.10 at JAK1 (h); 6.87 against JAK2 (h).

Turning to `CC(C)(O)Cn1cc(Nc2ncc(Cl)c(NC3CCC4(CC3)CCN(S(C)(=O)=O)CC4)n2)cn1` [Ex. 37, 1-(4-((5-chloro-4-((3-(methylsulfonyl)-3-azaspiro[5.5]undecan-9-yl)amino)pyrimidin-2-yl)amino)-1H-pyrazol-1-yl)-2-methylpropan-2-ol], the “Clearance (CL) after iv dosing” value in series [1] (iv dosing, dose 1 mg/kg) came to 29.3 mL/min/kg. The compound also had a F in series [1] (oral bioavailability, iv dose 1 mg/kg) of 53.6%. In series [1] (setting [4]), this compound registered an AUC(0-t) of 604 ng·h/mL. Also, the half-life in series [1] (setting [4]) was 1.25 h. The Vd in series [1] (rat, plasma, iv dosing, dose 1 mg/kg, read-out: Vss) is 2.61 L/kg. In addition, the half-life at 5 μM in series [2] was 1.17 h; in series [3], 0.905 h. Moreover, the CLint scaled at 5 μM in series [2] was 35.2 mL/min/kg; in series [3], 32 mL/min/kg. In addition, the pIC50 is 7.15 against Aurora-A (h), 8.70 on JAK1 (h) and 6.88 at JAK2 (h).

Consider `CCNC(=O)N1CC2CC(Nc3nc(Nc4cnn(C)c4)ncc3Cl)CC2C1` (centres unmarked) [Ex. 18, 5-((5-chloro-2-((1-methyl-1H-pyrazol-4-yl)amino)pyrimidin-4-yl)amino)-N-ethylhexahydrocyclopenta[c]pyrrole-2(1H)-carboxamide], for which the half-life at 5 μM in series [2] is 0.158 h; in series [3] it was 2.42 h. For the same compound, the CLint scaled at 5 μM in series [2] was 263 mL/min/kg; in series [3], 12 mL/min/kg. Further, the pIC50 against Aurora-B (h) was 8.70; on FLT3 (h), 5.99; on Aurora-A (h), 7.96; on JAK1 (h) it was 7.92; against JAK2 (h), 6.85.

The pIC50 is the negative decadic logarithm of the IC50, by convention in mol/L. A lower pIC50 goes with a high IC50. What is called AUC(0-t) is exposure summed from dosing to a finite time, without extrapolation to infinity. The CLint scaled is a measure of how fast metabolising enzymes remove a compound, apart from limits set by blood flow.
